One series addresses hKV10.1a (hEag1) (Homo sapiens, UniProt O95259). Put plainly: two-electrode voltage clamp, KV10.1 in Xenopus laevis oocytes. Format: cell-based. The procedure: (§1) For the expression of the ion channels (rNaV1.4, hNaV1.5, mNaV1.6, hKV1.1, rKV1.3, hKV1.4, hKV1.5, hKV2.1, hKV10.1a and hKV11.1,) in Xenopus oocytes, the plasmids were linearized and subsequently transcribed using the T7 or SP6 mMESSAGE-mMACHINE transcription kit (Ambion®, Carlsbad, CA, USA).
(§2) Stage V-VI Xenopus laevis oocytes were isolated by partial ovariectomy. The animals were anesthetized by a 15 min submersion in 0.1% tricaine methane sulfonate (pH 7.0). Isolated oocytes were defolliculated with 2 mg/mL collagenase.
(§3) Defolliculated oocytes were injected with 50 nL of cRNA at a concentration of 1 ng/nL using a micro-injector (Drummond Scientific®, Broomall, PA, USA). The oocytes were incubated in a solution containing (in mM): NaCl, 96; KCl, 2; CaCl2, 1.8; MgCl2, 2 and HEPES, 5 (pH 7.4), supplemented with 50 mg/L gentamycin sulfate.
(§4) Two-electrode voltage-clamp recordings were performed at room temperature (18–22 °C) using an Geneclamp 500B Voltage and Patch Clamp Amplifier (Axon Instruments, Union City, CA, USA, controlled by a Axon Digidata 1550 Low-Noise Data Acquisition System (Axon Instruments). Whole cell currents from oocytes were recorded 1–4 days after injection. The normal bath solution (ND96) composition was (in mM): NaCl, 96; KCl, 2; CaCl2, 1.8; MgCl2, 2 and HEPES, 5 (pH 7.4). The high potassium solution (HK) composition was in mM): NaCl, 2; KCl, 96; CaCl2, 1.8; MgCl2, 2 and HEPES, 5 (pH 7.4). Voltage and current electrodes were filled with 3 M KCl. Resistances of both electrodes were kept between 0.5 and 1.5 MΩ. The elicited KV1.x end KV2.1 currents were filtered at 500 Hz and sampled at 2 kHz, KV10.1 currents were filtered at 1 kHz and sampled at 2 kHz, hERG currents were filtered at 1 kHz and sampled at 10 kHz and the sodium currents were filtered at 2 kHz and sampled at 20 kHz using a four-pole low-pass Bessel filter. Leak subtraction was performed using a -P/4 protocol.
KV10.1 currents were evoked by 2 s depolarizing pulses to 0 mV from a holding potential of −90 mV. KV11.1 (hERG) peak and tail currents were generated by a 2.5 s prepulse from −90 mV to 40 mV followed by a 2.5 s pulse to −120 mV. KV1.x channel currents were evoked by 500 ms depolarizations to 0 mV from a holding potential of −90 mV followed by a 500 ms pulse to −50 mV. KV2.1 currents were elicited by 500 ms pulses to +20 mV from a holding potential of −90 mV. NaV currents were evoked by a 100 ms depolarizations to 0 mV from the holding potential.
[…]. The curve was fitted with the logistic dose-response equation, y = A1−A2/1+ (IC50/[toxin])^nH + A2 where y represents the percentage of current inhibition, A1 the initial inhibition at the lowest toxin concentration (0%), A2 the final inhibition at the highest toxin concentration, IC50 the half maximal inhibitory toxin concentration and ^nH the Hill coefficient.
The voltage-dependent activation of the KV10.1 channels was investigated by 1000 ms activating steps from the holding potential −90 mV to 65 mV with 5 mV increments. The normalized current amplitudes were plotted against the corresponding pulse potentials and fitted with the Boltzmann equation, y = A1−A2/1+ e^(V−V1/2)/k + A2, where y represents the normalized current (I/Imax), A1 is the initial y-value(-∞) and A2 is the final y-value, Imax is the maximal current, V is the test voltage, V1/2 is the half-maximal voltage and k is the slope factor.
The voltage-dependent inactivation of KV10.1 channels was studied by 1.5 s prepulses from the holding potential ranging from −140 mV to 30 mV with 10 mV steps. These pulses were followed by a 0.5 s test pulse to 30 mV [17]. The normalized peak current amplitudes (I2/I2,max) measured during the test pulse and were plotted against the prepulses and fitted with the Boltzmann equation.
All electrophysiological data are presented as means ± S.E.M of n ≥ 3 independent experiments unless otherwise indicated. […]

The next series relates to hKV11.1 (hERG). It is filed as cell-based, human. The procedure:
as §1, §2, §3, §4
KV10.1 currents were evoked by 2 s depolarizing pulses to 0 mV from a holding potential of −90 mV. KV11.1 (hERG) peak and tail currents were generated by a 2.5 s prepulse from −90 mV to 40 mV followed by a 2.5 s pulse to −120 mV. […]
The peak and tail current of hERG were measured at different voltages by 1500 ms activating pulses from −60 mV to 55 mV in 5 mV steps from the holding potential of −90 mV, followed by a 750 ms step to −120 mV.
All electrophysiological data are presented as means ± S.E.M of n ≥ 3 independent experiments unless otherwise indicated. All data were acquired using pClamp Clampex 10.4 Molecular Devices, Downingtown, PA, USA) and analyzed using pClamp Clampfit 10.4 (Molecular Devices) and OriginPro 8 (Originlab, Northampton, MA, USA) or GraphPad Prism 6 software (GraphPad Software, Inc., San Diego, CA, USA). […]

Setting [1] is: concentration-response curve, logistic fit.

Where “and” joins values, the source holds several entries; their conditions need not be identical. Equal entries are not always repeated. Entries after “also recorded” stand apart in the source; their conditions may differ. Where two headings read alike, the source gives them in different places. Positions of bridges follow the written chain, without caps; N, C: chain ends. No end group written: not given here.

In general, inhibition refers to the percentage by which the read-out fell short of the control. The IC50 is the concentration at which inhibition is half-maximal. As usually defined, the Hill coefficient is a measure of the steepness of the concentration-response curve.

Chain of hKV10.1a (hEag1) (O95259 other isoform, or with tags, fused parts or gaps): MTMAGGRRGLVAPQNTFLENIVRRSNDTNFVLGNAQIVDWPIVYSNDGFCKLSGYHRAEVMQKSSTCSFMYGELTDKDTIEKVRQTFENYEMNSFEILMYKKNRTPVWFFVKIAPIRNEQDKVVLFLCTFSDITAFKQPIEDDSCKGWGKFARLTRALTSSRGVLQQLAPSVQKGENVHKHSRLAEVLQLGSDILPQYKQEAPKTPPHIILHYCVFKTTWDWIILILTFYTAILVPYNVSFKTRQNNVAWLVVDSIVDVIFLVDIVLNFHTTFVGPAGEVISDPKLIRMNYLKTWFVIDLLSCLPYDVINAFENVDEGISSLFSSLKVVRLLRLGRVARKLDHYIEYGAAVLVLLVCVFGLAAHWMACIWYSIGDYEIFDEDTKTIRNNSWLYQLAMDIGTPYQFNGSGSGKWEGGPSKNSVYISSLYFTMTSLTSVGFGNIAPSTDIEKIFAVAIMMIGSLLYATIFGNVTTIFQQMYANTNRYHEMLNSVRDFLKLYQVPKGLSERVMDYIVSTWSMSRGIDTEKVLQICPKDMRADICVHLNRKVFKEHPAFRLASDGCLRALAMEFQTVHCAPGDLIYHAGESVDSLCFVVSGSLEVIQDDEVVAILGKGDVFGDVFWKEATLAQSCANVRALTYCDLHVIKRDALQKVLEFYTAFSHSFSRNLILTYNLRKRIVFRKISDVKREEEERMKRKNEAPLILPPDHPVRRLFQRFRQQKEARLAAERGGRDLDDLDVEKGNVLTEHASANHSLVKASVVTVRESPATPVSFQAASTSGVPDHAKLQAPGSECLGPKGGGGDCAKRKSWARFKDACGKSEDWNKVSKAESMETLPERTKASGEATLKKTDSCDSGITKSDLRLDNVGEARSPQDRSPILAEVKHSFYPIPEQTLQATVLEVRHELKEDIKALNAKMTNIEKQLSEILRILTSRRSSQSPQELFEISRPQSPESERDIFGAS

In the case of “GTTCYCGKTIGIYWFGKYSCPTNRGYTGSCPYFLGICCYPVD (disulfide 4-37, 6-30, 20-38) [APETx4]”, on hKV10.1a (hEag1) (1.6 µM APETx4, 2 s pulse to 0 mV from −90 mV, ND96, pH 7.4, 18–22 °C, mean ± SEM, n = 3), the “inhibition of the outward KV10.1 current” value is reported as “highest activity on KV10.1”. The inhibition at 1.6 µM amounted to 76 ± 2% at hKV10.1a (hEag1) (1.6 µM APETx4, 2 s pulse to 0 mV from −90 mV, ND96, pH 7.4, 18–22 °C, mean ± SEM, n = 3, read-out: inhibition of the outward KV10.1 current) and 79 ± 4% at hKV10.1a (hEag1) (1.6 μM APETx4, non-normalized inhibited current (1-It/Ic), read-out: inhibition of KV10.1 current, pulse −90 mV to 0 mV). Also, the “slope factor of activation” value on hKV10.1a (hEag1) (1.6 µM APETx4, HK solution (96 mM Ko), control 15.3 ± 1.4, n = 3, NS) is on record as 13.9 ± 0.8. In addition, the “half-maximal voltage V1/2 of activation” value on hKV10.1a (hEag1) (1.6 µM APETx4, HK solution (96 mM Ko), control 41.3 ± 1.4 mV, n = 3) came out at 50.9 ± 0.8 mV; on hKV10.1a (hEag1) (1.6 µM APETx4, ND96 (2 mM Ko), control 26.4 ± 0.9 mV, n = 3, p < 0.05), 44.1 ± 0.7 mV. The “shift of V1/2” value on hKV10.1a (hEag1) (1.6 µM APETx4, HK solution (96 mM Ko), n = 3, p < 0.05) turned out to be 9.6 ± 1.7 mV. Moreover, on hKV10.1a (hEag1) (1.6 µM APETx4, ND96 (2 mM Ko), Boltzmann fit, n = 3, p < 0.05), the “shift of the activation curve towards more positive potentials” value is 17.7 ± 1.1 mV. Besides, the “slope factor k of activation” value on hKV10.1a (hEag1) (1.6 µM APETx4, ND96 (2 mM Ko), control 20.7 ± 0.6 mV, n = 3, p < 0.05) is reported as 17.2 ± 0.3 mV. Besides, the “rise time tr (10% to 90%)” value at hKV10.1a (hEag1) (1.6 µM APETx4, control 653 ± 42 ms, n = 3, p < 0.05) came to 1246 ± 96 ms. The “time constant τ of KV10.1 activation” value at hKV10.1a (hEag1) (1.6 µM APETx4, exponential fit, control 376 ± 60 ms, n = 3, p < 0.05) turned out to be 1209 ± 229 ms. Further, the “reduction of KV10.1 current, pulse to 65 mV” value on hKV10.1a (hEag1) (1.6 μM APETx4, from the holding potential, non-normalized inhibited current (1-It/Ic)) is on record as 29 ± 6%. Further, on hKV10.1a (hEag1) (1.6 µM APETx4, held at −90 mV for 10 min during addition, pulse to 0 mV, versus control current), the “current reduction upon first stimulation after closed-state incubation” value turned out to be 85.2 ± 1.9%. The “time constant τ of onset of inhibition (normalized current decrease)” value on hKV10.1a (hEag1) (1.6 µM APETx4, one phase decay fit of I/Imax versus incubation time) turned out to be 97 ± 7 s. At hKV10.1a (hEag1) (1.6 μM APETx4, reduced inhibition at more positive potentials, HK solution), the “voltage dependence of current inhibition” value is reported as “a similar effect was observed”. For the same sequence, the IC50 at hKV10.1a (hEag1) (7 concentrations, logistic fit, 2 s pulse to 0 mV from −90 mV, ND96, mean ± SEM, n ≥ 3, read-out: IC50 for KV10.1 current inhibition) came out at 1.01 ± 0.01 µM. On hKV10.1a (hEag1) (HK solution (96 mM Ko), after toxin addition (1.6 µM)), the “inward current at negative pulse potentials” value is “no inward currents were observed”. In addition, on hKV10.1a (hEag1) (setting [1]), the Hill coefficient is 3.8 ± 0.3 and ~ 4. This sequence had a maximal current inhibition on hKV10.1a (hEag1) (setting [1]) of 88.3 ± 0.9%. Further, the “inactivation properties of KV10.1” value on hKV10.1a (hEag1) (two-pulse protocol, prepulse −140 to 30 mV, test pulse 30 mV, control or toxin condition) was “No apparent inactivation was observed”. The “hERG tail current at positive activation steps (≥0 mV)” value with hKV11.1 (hERG) (10 µM APETx4) is listed as “tail current increased”. Moreover, the “highest inhibition of hERG inward tail current” value in the series with hKV11.1 (hERG) (10 µM APETx4, activating step to −20 mV) is recorded as 21 ± 5%. Also, the “shift of hERG activation curve towards more positive potentials” value with hKV11.1 (hERG) (10 µM APETx4, inward tail currents, Boltzmann fit, n = 3, p < 0.05) came out at 7.7 ± 0.4 mV. Besides, the “selectivity KV10.1 versus hERG” value with hKV11.1 (hERG) (low micromolar concentrations) was “discriminates between KV10.1 and hERG; also recorded: makes a clear distinction between KV10.1 and hERG”.

For the origin of these results see PMC5618426, “APETx4, a Novel Sea Anemone Toxin and a Modulator of the Cancer-Relevant Potassium Channel KV10.1” (Marine Drugs, 2017).
